Results as given in patent US4209511A, “Aminoglycoside antibiotics and process for production thereof” (Yamanouchi Pharmaceutical Co., Ltd., priority 1978, dated 1980).
Converted amounts (≈) assume the structure as drawn. Like-named read-outs stand apart in the source and are kept apart here.

Columns and labels:
[1] = system: Micrococcus flavus ATCC 10240; experiment: Minimum inhibitory concentration, Micrococcus flavus ATCC 10240; assay type: cell-based
Sarcina lutea ATCC 9341 = experiment: Minimum inhibitory concentration, Sarcina lutea ATCC 9341; assay type: cell-based; details: Micrococcus luteus
[2] = system: Staphylococcus aureus Smith; experiment: Minimum inhibitory concentration, Staphylococcus aureus Smith; assay type: cell-based; details: read-out: Minimum Inhibitory Concentration
Mycobacterium phlei = experiment: Minimum inhibitory concentration, Mycobacterium phlei; assay type: cell-based; details: Mycolicibacterium phlei, read-out: Minimum Inhibitory Concentration
Escherichia coli NIHJ = experiment: Minimum inhibitory concentration, Escherichia coli NIHJ; assay type: cell-based; details: read-out: Minimum Inhibitory Concentration
[3] = system: Salmonella enteritidis 1891; experiment: Minimum inhibitory concentration, Salmonella enteritidis 1891; assay type: cell-based; details: Salmonella enterica, read-out: Minimum Inhibitory Concentration
Shigella sonnei II 37148 = experiment: Minimum inhibitory concentration, Shigella sonnei II 37148; assay type: cell-based; details: II37148
Proteus vulgaris OXK US = experiment: Minimum inhibitory concentration, Proteus vulgaris OXK US; assay type: cell-based; details: read-out: Minimum Inhibitory Concentration
[4] = system: Pseudomonas aeruginosa ATCC 8689; experiment: Minimum inhibitory concentration, Pseudomonas aeruginosa ATCC 8689; assay type: cell-based
[5] = system: Pseudomonas melanogenum IAM 1655; experiment: Minimum inhibitory concentration, Pseudomonas melanogenum IAM 1655; assay type: cell-based
[6] = system: Staphylococcus aureus Onuma (PC-,SM-,Mac-resistant); experiment: Minimum inhibitory concentration, Staphylococcus aureus Onuma (PC-,SM-,Mac-resistant); assay type: cell-based; details: read-out: Minimum Inhibitory Concentration
[7] = system: Staphylococcus aureus (PC-,SM-,TC-,KM-,Mac-resistant); experiment: Minimum inhibitory concentration, Staphylococcus aureus (PC-,SM-,TC-,KM-,Mac-resistant); assay type: cell-based; details: read-out: Minimum Inhibitory Concentration
[8] = system: Escherichia coli K-12 ML-1629; experiment: Minimum inhibitory concentration, Escherichia coli K-12 ML-1629; assay type: cell-based; details: K12ML1629; Escherichia coli K-12 ML-1629 (inactivates aminoglycosides with a phosphotransferase)
[9] = system: Escherichia coli K-12 R-5; experiment: Minimum inhibitory concentration, Escherichia coli K-12 R-5; assay type: cell-based; details: for MIC: K12R5, Escherichia coli K-12 R-5 (inactivates aminoglycosides with an acetyltransferase)
[10] = system: Pseudomonas aeruginosa 99; experiment: Minimum inhibitory concentration, Pseudomonas aeruginosa 99; assay type: cell-based; details: Pseudomonas aeruginosa 99 (inactivates aminoglycosides with an acetyltransferase)
[11] = system: Pseudomonas aeruginosa GN-315; experiment: Minimum inhibitory concentration, Pseudomonas aeruginosa GN-315; assay type: cell-based
Solubility = assay type: physicochemical; details: free base (lyophilized product)
in vivo = details: mouse, iv
[12] = ATCC10240, Micrococcus flavus ATCC 10240, read-out: Minimum Inhibitory Concentration
[13] = ATCC9341, Sarcina lutea ATCC 9341, read-out: Minimum Inhibitory Concentration
[14] = Pseudomonas aeruginosa, ATCC8689, read-out: Minimum Inhibitory Concentration
[15] = Pseudomonas, IAM1655, read-out: Minimum Inhibitory Concentration
[16] = Staphylococcus aureus Onuma (PC-,SM-,Mac-resistant)
[17] = Staphylococcus aureus (PC-,SM-,TC-,KM-,Mac-resistant)
[18] = Pseudomonas aeruginosa, GN315, read-out: Minimum Inhibitory Concentration
[19] = Micrococcus flavus, ATCC10240, read-out: Minimum Inhibitory Concentration
[20] = ATCC9341, read-out: Minimum Inhibitory Concentration
[21] = GN315, Pseudomonas aeruginosa GN-315, read-out: Minimum Inhibitory Concentration
[22] = ATCC8689, Pseudomonas aeruginosa ATCC 8689, read-out: Minimum Inhibitory Concentration
[23] = IAM1655, Pseudomonas melanogenum IAM 1655, read-out: Minimum Inhibitory Concentration

| Compound | MIC [1, 12] [µg/mL] | MIC (Sarcina lutea ATCC 9341; [13]) [µg/mL] | MIC ([2]; Staphylococcus aureus Smith) [µg/mL] | MIC (Mycobacterium phlei; Mycobacterium phlei) [µg/mL] | MIC (Escherichia coli NIHJ; Escherichia coli NIHJ) [µg/mL] | MIC ([3]; Salmonella enteritidis 1891) [µg/mL] | MIC (Shigella sonnei II 37148) [µg/mL] | MIC [4, 14] [µg/mL] | MIC [5, 15] [µg/mL] | MIC [6, 16] [µg/mL] | MIC [7, 17] [µg/mL] | MIC [8] [µg/mL] | MIC [9] [µg/mL] | MIC [10] [µg/mL] | Solubility in acetone (Solubility) | Solubility in chloroform, benzene, ethyl acetate, butyl acetate, ether, n-hexane, etc. (Solubility) | Solubility in ethanol (Solubility) | Solubility in methanol (Solubility) | MIC (Proteus vulgaris OXK US; Proteus vulgaris) [µg/mL] | MIC [11, 21] [µg/mL] | also measured |
| --- | --- | --- | --- | --- | --- | --- | --- | --- | --- | --- | --- | --- | --- | --- | --- | --- | --- | --- | --- | --- | --- |
| CNCC1CCC(N)C(OC2C(N)CC(N)C(OC3OC(CO)C(C)(O)C(NC)C3O)C2O)O1 (centres unmarked) [I-B1, 3"-N-Methyl-4"-C-methyl-3',4'-dideoxy-6'-N-methylkanamycin B or its 4"-epimer] | 0.39 (≈ 0.79 µM) | 0.39 (≈ 0.79 µM) | 0.39 (≈ 0.79 µM) | 0.78 (≈ 1.58 µM) | 0.78 (≈ 1.58 µM) | 0.78 (≈ 1.58 µM) | 0.78 (≈ 1.58 µM) | 3.13 (≈ 6.34 µM) | 1.56 (≈ 3.16 µM) | 0.19 (≈ 0.385 µM) | 0.19 (≈ 0.385 µM) | 1.56 (≈ 3.16 µM) | 1.56 (≈ 3.16 µM) | 3.13 (≈ 6.34 µM) | sparingly soluble | insoluble | soluble | soluble | – | – | MIC (Proteus vulgaris OXK US; Proteus vulgaris OXK US): 0.78 µg/mL (≈ 1.58 µM); inhibited the growth of resistant bacteria ([9]; Escherichia coli K-12 R-5, inactivates Kanamycin B by acetylating the 6'-amino group): inhibited the growth; inhibited the growth of resistant bacteria ([11]; Pseudomonas aeruginosa GN 315, inactivates Kanamycin B by acetylating the 6'-amino group): inhibited the growth; MIC [11, 18]: 1.56 µg/mL (≈ 3.16 µM); Solubility in water (Solubility): Very easily soluble |
| NC[C@H]1O[C@H](O[C@H]2[C@H](O)[C@@H](O[C@H]3O[C@H](CO)[C@@H](O)[C@H](N)[C@H]3O)[C@H](N)C[C@@H]2N)[C@H](N)[C@@H](O)[C@@H]1O [KM-B, Kanamycin B, reference compound] | – | – | – | – | – | – | 1.56 (≈ 3.23 µM) | 100 (≈ 207 µM) | 50 (≈ 103 µM) | 0.78 (≈ 1.61 µM) | 50 (≈ 103 µM) | > 100 | > 100 | 50 (≈ 103 µM) | – | – | – | – | 6.25 (≈ 12.9 µM) | 100 (≈ 207 µM) | MIC [1, 19]: 1.56 µg/mL (≈ 3.23 µM); MIC (Sarcina lutea ATCC 9341; [20]): 0.78 µg/mL (≈ 1.61 µM); MIC (Mycobacterium phlei): 3.13 µg/mL (≈ 6.47 µM); MIC (Escherichia coli NIHJ; Escherichia coli): 1.56 µg/mL (≈ 3.23 µM); MIC ([3]; ENTERITIDIS): 1.56 µg/mL (≈ 3.23 µM) |
| NC[C@@H]1CC[C@@H](N)[C@@H](O[C@H]2[C@H](O)[C@@H](O[C@H]3O[C@H](CO)[C@@H](O)[C@H](N)[C@H]3O)[C@H](N)C[C@@H]2N)O1 [DKB, Dibekacin, reference compound] | 3.13 (≈ 6.93 µM) | – | 0.78 (≈ 1.73 µM) | – | 0.78 (≈ 1.73 µM) | 0.78 (≈ 1.73 µM) | 1.56 (≈ 3.45 µM) | 1.56 (≈ 3.45 µM) | 1.56 (≈ 3.45 µM) | 0.19 (≈ 0.421 µM) | 0.19 (≈ 0.421 µM) | 1.56 (≈ 3.45 µM) | 100 (≈ 221 µM) | 1.56 (≈ 3.45 µM) | – | – | – | – | 1.56 (≈ 3.45 µM) | 100 (≈ 221 µM) | MIC (Sarcina lutea ATCC 9341; [20]): 1.56 µg/mL (≈ 3.45 µM); MIC (Mycobacterium phlei): 1.56 µg/mL (≈ 3.45 µM) |
| CNC1C(O)C(OC2C(N)CC(N)C(OC3OC(CN)CCC3O)C2O)OC(CO)C1(C)O (centres unmarked) [I-A2, 3"-N-Methyl-4"-C-methyl-3',4'-dideoxykanamycin A or its 4"-epimer] | 0.78 (≈ 1.62 µM) | 0.78 (≈ 1.62 µM) | – | 1.56 (≈ 3.25 µM) | 1.56 (≈ 3.25 µM) | 1.56 (≈ 3.25 µM) | 3.13 (≈ 6.51 µM) | – | – | – | 6.25 (≈ 13 µM) | 3.13 (≈ 6.51 µM) | > 100 | 12.5 (≈ 26 µM) | sparingly soluble | insoluble | sparingly soluble | soluble | 3.13 (≈ 6.51 µM) | > 100 | MIC ([2]; Staphylococcus aureus): 3.13 µg/mL (≈ 6.51 µM); MIC [4, 22]: 6.25 µg/mL (≈ 13 µM); MIC [5, 23]: 6.25 µg/mL (≈ 13 µM); MIC ([6]; Staphylococcus aureus): 3.13 µg/mL (≈ 6.51 µM); Solubility in water (Solubility): Very easily soluble |
| NCC1OC(OC2C(N)CC(N)C(OC3OC(CO)C(O)C(N)C3O)C2O)C(O)C(O)C1O (centres unmarked) [KM-A, Kanamycin A, reference compound] | – | – | – | – | – | – | 3.13 (≈ 6.46 µM) | > 100 | – | – | – | > 100 | > 100 | 100 (≈ 206 µM) | – | – | – | – | 6.25 (≈ 12.9 µM) | – | MIC [1, 19]: 6.25 µg/mL (≈ 12.9 µM); MIC (Sarcina lutea ATCC 9341; [20]): 3.13 µg/mL (≈ 6.46 µM); MIC ([2]; Staphylococcus aureus): 3.13 µg/mL (≈ 6.46 µM); MIC (Mycobacterium phlei): 1.56 µg/mL (≈ 3.22 µM); MIC (Escherichia coli NIHJ; Escherichia coli): 3.13 µg/mL (≈ 6.46 µM); MIC ([3]; ENTERITIDIS): 3.13 µg/mL (≈ 6.46 µM); MIC [5, 23]: > 100 µg/mL; MIC ([6]; Staphylococcus aureus): 1.56 µg/mL (≈ 3.22 µM); MIC ([7]; Staphylococcus aureus): > 100 µg/mL; MIC [11, 18]: > 100 µg/mL |
| CNC1C(O)C(OC2C(N)CC(N)C(OC3OC(CN)CCC3N)C2O)OC(CO)C1(C)O (centres unmarked) [I-B2, 3"-N-Methyl-4"-C-methyl-3',4'-dideoxykanamycin B or its 4"-epimer] | 0.39 (≈ 0.813 µM) | 0.39 (≈ 0.813 µM) | 0.39 (≈ 0.813 µM) | 0.39 (≈ 0.813 µM) | 0.78 (≈ 1.63 µM) | 0.39 (≈ 0.813 µM) | 0.78 (≈ 1.63 µM) | – | 1.56 (≈ 3.25 µM) | 0.19 (≈ 0.396 µM) | 0.19 (≈ 0.396 µM) | 1.56 (≈ 3.25 µM) | 25 (≈ 52.1 µM) | 6.25 (≈ 13 µM) | sparingly soluble | insoluble | sparingly soluble | soluble | – | 50 (≈ 104 µM) | MIC (Proteus vulgaris OXK US; Proteus vulgaris OXK US): 0.78 µg/mL (≈ 1.63 µM); MIC [4, 22]: 3.13 µg/mL (≈ 6.53 µM); Solubility in water (Solubility): Very easily soluble; MTD (in vivo): 125 mg/kg |
